Experimental data taken from patent publication US9890111B2, “Crystal structure of bifunctional transglycosylase PBP1b from E. coli and inhibitors thereof” (Academia Sinica, priority 2008, dated 2018).
≈ marks a conversion by molar mass, not a printed value. Like-named read-outs stand apart in the source and are kept apart here.

Assays:
[1] = test system: Mycobacterium smegmatis (ATCC11565, MS); assay: Minimal inhibitory concentration (MIC), MS; type: cell-based; settings: for MIC: Mycolicibacterium smegmatis; for MIC MS: Mycobacterium smegmatis ATCC11565
Method: (§1) The minimal inhibitory concentration (MIC) of tested compounds was determined following the NCCLS standard. The experiments were conducted in 96-well microtiter plates using two-fold dilutions in Muller-Hilton broth with (Streptococcus pneumonia) or without blood (Bacillus subtilis, Enterococcus faecalis, Staphylococcus aureus, Escherichia coli, MRSA, Actinetobacter baumannii, Pseudomonas aeruginosa, Stenotrophomonas maltophilia, and Mycobacterium smegmatis). Exponentially growing cells at 5×10^5 cells/ml were incubated with test compounds at various concentrations. After an 18 h to 24 h incubation at 37° C., MIC was determined as the minimal concentration of the compound that prevents bacterial growth.

[2] = test system: methicillin-resistant Staphylococcus aureus (ATCC33592, MRSA); assay: Minimal inhibitory concentration (MIC), MRSA; type: cell-based; settings: for MIC: Staphylococcus aureus, read-out: MIC MRSA
Method: as §1

[3] = target: T1, penicillin-binding protein 1b from E. coli (transglycosylase) (Escherichia coli, UniProt P02919); assay: Lipid II polymerization / transglycosylase (TG) activity assay; type: biochemical; settings: for remaining activity at 100 µM: read-out: TG Activity at various concentration of cmpd: 100 μM; for TG Activity at various concentration of cmpd: 50 μM: 50 μM compound; for TG Activity at various concentration of cmpd: 100 μM: 100 μM compound; for remaining activity at 50 µM: read-out: TG Activity at various concentration of cmpd: 50 μM
T1 construct: PBP1b[58-804] was amplified from E. coli genomic DNA and cloned into the expression vector pET15b; His6 (N, cleaved yes); made in house; host or cells: E. coli BL21(DE3)
Method: Lipid II polymerization assays were carried out by incubating 100 μM fluorophore-labeled lipid II and penicillin-binding protein 1b from E. coli in tubes containing 10 ng/μL N-acetyl muramidase in 50 mM Tris.HCl (pH 8.0), 10 mM MgCl2, 0.1% Triton X-100, 10% DMSO, and 15% MeOH for 30 minutes (Van Nieuwenhze et al. J Am Chem Soc 2002, 124, 3656.). The fluorophore can be dansyl chloride, NBD, BODIPY, fluorescein. Reaction supernatants were then injected onto an anion-exchange HPLC column (SAX1, Supelco Co.) and eluted with a linear gradient of ammonium acetate (20 mM to 0.5 M) in methanol. The eluant was monitored for fluorescence with λex=466 nm and λem=535 nm.
Purified protein was concentrated in 20 mM Tris-HCl (pH 8.0), 300 mM NaCl, and 1 mM DDM. Instead of using Dansyl lipid II, 6-(N-(7-nitrobenz-2-oxa-1,3-diazol-4-yl)amino) hexanoyl (NBD)-labeled Lipid II was prepared as described (Taubes G (2008) Science 321:356-361; Payne D J (2008) Science 321:1644-1645) and used as a substrate to measure TG enzymatic activity, with approach similar to what has been described previously (Holtje J V (1998) Microbiol Mol Biol Rev 62:181-203). Assays were carried out by using the following condition: NBD-Lipid II, 20 nM protein, 50 mM Tris HCl (pH 8.0), 10 mMCaCl2, 0.085% decyl PEG (Anatrace), and 15% MeOH at 37° C. for 0, 1, 3, 5, 7, 9, 20, and 30 min. The concentration of NBD-Lipid II was varied from 1 to 100 μM to determine the rate of the TG activity. After the reaction, 200 μM moenomycin was added to stop the reaction, and 13 μM muramidase (Sigma-Aldrich) was added to digest the TG products to result in NBD-Lipid II without lipid tails. The fluorescent signal decrease of substrate and increase of NBD-Lipid II without lipid tails were detected by anion-exchange column SAX1 (Supelco) on HPLC (Hitachi). The elution procedures was a linear gradient of ammonium acetate (20 mM to 1 M) in MeOH monitored at λexcitation=466 nm and λemission=535 nm. The kinetic parameter was estimated by following the Michaelis-Menten equation. To investigate the importance of transmembrane (TM) helix, PBP1b and PBP1bΔTM (residues Met-1 to Leu-87 were removed) were extracted with the buffer containing 20 mM Tris-HCl (pH 8.0), 300 mM NaCl, and 13 mM FOS-CHOLINE-14 (Anatrace). The protein was purified by nickel chelation chromatography in the presence of 1 mM DDM. The activity assay was carried out by using the following condition: 12 μM NBD-Lipid II, 20 nM protein, 50 mM Tris-HCl (pH 8.0), 10 mM CaCl2, 0.085% decyl PEG, and 15% MeOH at 37° C. for time 0, 1, 3, 5, 7, 9, 20, and 30 min. The initial velocity was used to compare the activity of full-length PBP1b and PBP1bΔTM.

[4] = test system: Escherichia coli (ATCC 25922, EC); assay: Minimal inhibitory concentration (MIC), EC; type: cell-based
Method: as §1

[5] = test system: Staphylococcus aureus (ATCC29213, SA); assay: Minimal inhibitory concentration (MIC), SA; type: cell-based; settings: for MIC: Staphylococcus aureus; for MIC SA: Staphylococcus aureus ATCC29213
Method: as §1

[6] = ATCC11565, Mycobacterium smegmatis ATCC11565, read-out: MIC MS
[7] = methicillin-resistant Staphylococcus aureus ATCC33592
[8] = ATCC25922, Escherichia coli ATCC 25922, read-out: MIC EC
[9] = ATCC29213, Staphylococcus aureus ATCC29213, read-out: MIC SA
[10] = TG activity remaining (0% = full inhibition)

T1 sequence (P02919 58-804): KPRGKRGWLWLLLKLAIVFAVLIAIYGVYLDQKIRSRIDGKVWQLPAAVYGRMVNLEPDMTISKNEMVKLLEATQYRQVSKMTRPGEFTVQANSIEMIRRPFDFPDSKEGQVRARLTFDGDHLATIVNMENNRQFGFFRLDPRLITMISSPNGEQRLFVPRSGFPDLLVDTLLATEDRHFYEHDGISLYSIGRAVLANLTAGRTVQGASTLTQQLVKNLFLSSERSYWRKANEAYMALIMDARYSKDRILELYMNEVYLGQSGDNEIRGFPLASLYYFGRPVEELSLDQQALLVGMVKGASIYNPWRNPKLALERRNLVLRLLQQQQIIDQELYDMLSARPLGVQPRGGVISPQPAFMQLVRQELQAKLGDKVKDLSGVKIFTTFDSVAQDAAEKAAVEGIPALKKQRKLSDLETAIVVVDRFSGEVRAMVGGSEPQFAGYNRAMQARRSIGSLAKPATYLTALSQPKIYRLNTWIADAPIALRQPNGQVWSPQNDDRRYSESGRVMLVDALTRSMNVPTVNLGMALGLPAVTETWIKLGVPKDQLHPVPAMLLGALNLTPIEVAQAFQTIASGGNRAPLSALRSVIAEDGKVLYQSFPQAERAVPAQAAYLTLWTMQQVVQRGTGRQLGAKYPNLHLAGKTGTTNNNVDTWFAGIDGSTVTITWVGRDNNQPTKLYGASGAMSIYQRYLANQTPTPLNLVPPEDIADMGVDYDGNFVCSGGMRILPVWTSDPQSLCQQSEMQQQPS

Structure (SMILES) | MIC [1, 6] [µg/mL] | MIC [2, 7] [µg/mL] | remaining activity at 100 µM [3] [%] | MIC [5, 9] [µg/mL] | MIC MS [1] | MIC SA [5] [µg/mL] | MIC MRSA [2, 7] [µg/mL] | TG Activity at various concentration of cmpd: 50 μM [3, 10] [%] | TG Activity at various concentration of cmpd: 100 μM [3, 10] [%] | MIC EC ([4]; Escherichia coli ATCC 25922) [µg/mL] | further results
O=C(Nc1cc(Cl)c(Cl)c(Cl)c1)c1cc(Br)cc(Br)c1O [Compound 001] | ≤ 0.03 | 0.06 (≈ 0.126 µM) | 100 | ≤ 0.03 |  |  |  |  |  |  | MIC [4, 8]: 16 µg/mL (≈ 33.7 µM)
O=C(Nc1ccc(Cl)c(Cl)c1)c1cc(Cl)cc(Cl)c1O [Compound 003] |  |  | 100 |  |  |  |  |  |  |  | MIC ([1]; ATCC11565, read-out: MIC MS): 0.06 µg/mL (≈ 0.171 µM); MIC [2]: 1 µg/mL (≈ 2.85 µM); MIC ([4]; Escherichia coli, ATCC25922, read-out: MIC EC): 32 µg/mL (≈ 91.2 µM); MIC ([5]; ATCC29213, read-out: MIC SA): 0.25 µg/mL (≈ 0.712 µM)
O=C(Nc1cc(Cl)c(Cl)c(Cl)c1)c1cc(Cl)cc(Cl)c1O [Compound 004] |  | 0.5 (≈ 1.3 µM) | 100 |  | ≦0.03 μg/ml | 0.125 (≈ 0.324 µM) |  |  |  |  | MIC [4, 8]: 16 µg/mL (≈ 41.5 µM)
O=C(Nc1cc(Cl)cc(C(=O)c2ccc(Cl)cc2)c1Cl)c1cc(Br)cc(Br)c1O [Compound 115] |  |  |  |  | 0.25 µg/mL (≈ 0.432 µM) | 0.5 (≈ 0.864 µM) | 2 (≈ 3.46 µM) | 100 | 0 | >256 | 
O=C(Nc1cc(Cl)cc(C(=O)c2ccccc2)c1Cl)c1cc(Br)cc(Br)c1O [Compound 116] |  |  |  |  | 0.5 µg/mL (≈ 0.919 µM) | 1 (≈ 1.84 µM) | 8 (≈ 14.7 µM) | 100 | 0 | >256 | 
O=C(Nc1cc(Cl)cc(C(=O)c2ccc(Cl)cc2)c1Cl)c1cc(Cl)cc(Br)c1O [Compound 117] |  |  |  |  | 0.25 µg/mL (≈ 0.468 µM) | 0.5 (≈ 0.936 µM) | 0.5 (≈ 0.936 µM) | 100 | 0 | >256 | 
O=C(Nc1ccc(Cl)cc1)c1cc(Br)cc(Br)c1O [Compound 118] | 1 (≈ 2.47 µM) |  | 100 | 1 (≈ 2.47 µM) |  |  | 4 (≈ 9.87 µM) |  |  |  | remaining activity at 50 µM [3]: 100%; MIC [4, 8]: 128 µg/mL (≈ 316 µM)
Cc1ccc(C(C)C)cc1Oc1ccc(Cl)cc1NC(=O)c1cc(Cl)cc(Br)c1O [Compound 121] |  |  |  |  | 0.25 µg/mL (≈ 0.491 µM) | 0.25 (≈ 0.491 µM) | 0.125 (≈ 0.245 µM) | 0 | 0 | >256 | TG Activity at various concentration of cmpd: 25 μM ([3]; 25 μM compound, TG activity remaining (0% = full inhibition)): 90%
O=C(Nc1ccc(Oc2ccc(Cl)cc2)c(Cl)c1)c1cc(Br)cc(Br)c1O [Compound 122] |  |  |  |  | 0.125 µg/mL (≈ 0.235 µM) | 0.5 (≈ 0.94 µM) | 0.25 (≈ 0.47 µM) | 60 | 0 | >256 | 
O=C(c1ccc(Cl)cc1)c1cc(NC(=O)c2cc(Cl)cc(Br)c2O)c(Cl)cc1Cl [Compound 123] |  |  |  |  | 0.06 µg/mL (≈ 0.112 µM) | 0.25 (≈ 0.468 µM) | 0.25 (≈ 0.468 µM) | 60 | 0 | >256 | 
O=C(c1ccccc1)c1cc(NC(=O)c2cc(Br)cc(Br)c2O)ccc1Cl [Compound 124] |  |  |  |  | 1 µg/mL (≈ 1.96 µM) | 1 (≈ 1.96 µM) | 1 (≈ 1.96 µM) | 100 | 0 | >256 | 
O=C(Nc1cc(Cl)ccc1O)c1ccc(Cl)c(C(=O)c2ccc(Cl)cc2)c1 [Compound 126] |  |  |  |  | 0.06 µg/mL (≈ 0.143 µM) | 1 (≈ 2.38 µM) | 0.125 (≈ 0.297 µM) | 100 | 100 | >256 | 
O=C(Nc1cc(Cl)ccc1Cl)c1cc(Br)cc(Br)c1O [Compound 127] | 1 (≈ 2.27 µM) | 1 (≈ 2.27 µM) | 100 | 1 (≈ 2.27 µM) |  |  |  |  |  |  | remaining activity at 50 µM [3]: 100%; MIC [4, 8]: 64 µg/mL (≈ 145 µM)
O=C(Nc1ccc(O)cc1)c1cc(Br)cc(Br)c1O [KTS-1] | 16 (≈ 41.3 µM) | > 32 |  | 32 (≈ 82.7 µM) |  |  |  |  |  |  | remaining activity at 50 µM [3]: 70%
O=C(Nc1ccccc1O)c1cc(Br)cc(Br)c1O [KTS-3] | 4 (≈ 10.3 µM) | 4 (≈ 10.3 µM) |  | 4 (≈ 10.3 µM) |  |  |  |  |  |  | remaining activity at 50 µM [3]: 70%
Cc1ccc(NC(=O)c2cc(Br)cc(Br)c2O)cc1Cl [KTS-7] | 1 (≈ 2.38 µM) | 1 (≈ 2.38 µM) | 100 | 1 (≈ 2.38 µM) |  |  |  |  |  |  | remaining activity at 50 µM [3]: 100%
O=C(Nc1ccc(Cl)cc1)c1cc(Br)cc(Br)c1O [KTS-9] |  |  |  |  | 2 µg/mL (≈ 4.93 µM) | 1 (≈ 2.47 µM) | 1 (≈ 2.47 µM) | 100 | 100 |  | 
